System: IDDM associated autoantibodies in sera
Assay: ELISA of sera on plate-bound human GAD65 peptides
Type: binding
Conditions: for number of IDDM (at risk, pre-IDDM, at onset) patients positive (X) for the peptide (unlabelled sum line): IDDM sera of Table 11
Protocol: Patient sera and most control sera were those used in a previous study (Kaufman, et al., J. Clin. Investigation, supra) All samples were coded and tested in a blind manner. Peptides were synthesized using an automatic instrument (Applied Biosystems, Foster City, Calif.) and standard conditions. Peptides were dissolved in 60 mM sodium bicarbonate buffer (pH 9.6) at 20 ug/ml and 100 ul of each was added to duplicated wells of a 96 well Nunc-Immuno Plate. Peptides were allowed to bind at 4° C. overnight. The plates were then washed three times with PBS+0.1% Tween 20 (wash buffer), after which the plates were pre-absorbed with 3% BSA in sodium bicarbonate buffer for 0.5 hours at 37° C., or at room temperature overnight. The plates were then washed 5 times with the above wash buffer. 100 ul of serum at a 1/300 dilution in PBS+0.1% Tween 20 and 1% BSA was added to each well and antibodies were allowed to bind for 1 hour at 37° C. The plates were washed 5 times with wash buffer. 100 ul of a 1/600 dilution of HRP-goat anti-human IgG (BRL, Gaithersberg, Md.) was added to each well and allowed to bind for 1 hour at 37° C. The plates were then washed 7 times and 100 ul of substrate buffer was added to each well for 30 minutes at room temperature. The color development was measured at 410 nm using an ELISA plate reader (ICN, Biomedicals, Costa Mesa, Calif.). Positive sera were defined as: OD410 of the sample/negative control ≧3.0.

[1] = IDDM At Risk serum 052, 1/300 dilution
[2] = IDDM At Onset serum 048, 1/300 dilution
[3] = IDDM At Onset serum 291, 1/300 dilution
[4] = IDDM At Onset serum 705, 1/300 dilution
[5] = IDDM At Onset serum S.H., 1/300 dilution
[6] = Pre-IDDM serum 723, 1/300 dilution
[7] = Pre-IDDM serum J.B. (2), 1/300 dilution
[8] = Pre-IDDM serum P.T. (1), 1/300 dilution
[9] = Pre-IDDM serum P.T. (2), 1/300 dilution
[10] = Pre-IDDM serum R.S. (2), 1/300 dilution
[11] = IDDM At Risk serum L.I., 1/300 dilution

Sequence | immunoreactivity of serum with GAD65 peptide [1] | immunoreactivity of serum with GAD65 peptide [2] | immunoreactivity of serum with GAD65 peptide [3] | immunoreactivity of serum with GAD65 peptide [4] | number of IDDM (at risk, pre-IDDM, at onset) patients positive (X) for the peptide (unlabelled sum line) | immunoreactivity of serum with GAD65 peptide [7] | immunoreactivity of serum with GAD65 peptide [9] | also measured
EYVTLKKMREIIGWPGGSGD [Peptide 15] | b (b = borderline response (00/background ?2.5-2.9).) | – | – | – | – | – | – | –
GLLMSRKHKLSGVERANS [Peptide 25] | – | X (X = positive for immunoreactivity as defined by 00/background^3.0) | X (X = positive for immunoreactivity as defined by 00/background^3.0) | X (X = positive for immunoreactivity as defined by 00/background^3.0) | 8 | b (b = borderline response (00/background ?2.5-2.9).) | X (X = positive for immunoreactivity as defined by 00/background^3.0) | controls whose sera recognized the peptide (13 control sera): 1 out of 13; number of control sera positive (X) for the peptide (unlabelled sum line) (13 control sera): 1; immunoreactivity of serum with GAD65 peptide [5]: X (X = positive for immunoreactivity as defined by 00/background^3.0); immunoreactivity of serum with GAD65 peptide (IDDM At Risk serum 356, 1/300 dilution): X (X = positive for immunoreactivity as defined by 00/background^3.0); immunoreactivity of serum with GAD65 peptide (IDDM At Risk serum 825, 1/300 dilution): b (b = borderline response (00/background ?2.5-2.9).); immunoreactivity of serum with GAD65 peptide [6]: X (X = positive for immunoreactivity as defined by 00/background^3.0); immunoreactivity of serum with GAD65 peptide [8]: b (b = borderline response (00/background ?2.5-2.9).); immunoreactivity of serum with GAD65 peptide (Pre-IDDM serum R.S. (1), 1/300 dilution): X (X = positive for immunoreactivity as defined by 00/background^3.0); immunoreactivity of serum with GAD65 peptide [10]: X (X = positive for immunoreactivity as defined by 00/background^3.0); immunoreactivity of serum with GAD65 peptide (control serum FA12, 1/300 dilution): b (b = borderline response (00/background ?2.5-2.9).); immunoreactivity of serum with GAD65 peptide (control serum S.M., 1/300 dilution): X (X = positive for immunoreactivity as defined by 00/background^3.0); patients whose sera recognized the peptide (patients previously shown to be 64K positive): 6/8
GSGDSENPGTARAWCQVAQKFTG [Peptide 2] | b (b = borderline response (00/background ?2.5-2.9).) | – | – | – | – | – | – | immunoreactivity of serum with GAD65 peptide [5]: b (b = borderline response (00/background ?2.5-2.9).)
HATDLLPACDGERPTLAFLQ [Peptide 7] | – | – | b (b = borderline response (00/background ?2.5-2.9).) | – | – | b (b = borderline response (00/background ?2.5-2.9).) | b (b = borderline response (00/background ?2.5-2.9).) | immunoreactivity of serum with GAD65 peptide (Pre-IDDM serum J.B. (1), 1/300 dilution): b (b = borderline response (00/background ?2.5-2.9).)
KGTTGFEAHVDKCLELAEYLYN [Peptide 31] | b (b = borderline response (00/background ?2.5-2.9).) | – | – | – | – | – | b (b = borderline response (00/background ?2.5-2.9).) | immunoreactivity of serum with GAD65 peptide [8]: b (b = borderline response (00/background ?2.5-2.9).)
KHYDLSYDTGDKALQCGRHV [Peptide 29] | X (X = positive for immunoreactivity as defined by 00/background^3.0) | X (X = positive for immunoreactivity as defined by 00/background^3.0) | – | X (X = positive for immunoreactivity as defined by 00/background^3.0) | 4 | b (b = borderline response (00/background ?2.5-2.9).) | X (X = positive for immunoreactivity as defined by 00/background^3.0) | immunoreactivity of serum with GAD65 peptide [8]: X (X = positive for immunoreactivity as defined by 00/background^3.0)
KPCSCSKVDVNYAFLHATDL [Peptide 6] | X (X = positive for immunoreactivity as defined by 00/background^3.0) | X (X = positive for immunoreactivity as defined by 00/background^3.0) | – | – | 2 | – | – | immunoreactivity of serum with GAD65 peptide [10]: b (b = borderline response (00/background ?2.5-2.9).)
LAFLQDVMNILLQYVVKSFDRS [Peptide 8] | – | – | – | X (X = positive for immunoreactivity as defined by 00/background^3.0) | 2 | b (b = borderline response (00/background ?2.5-2.9).) | b (b = borderline response (00/background ?2.5-2.9).) | immunoreactivity of serum with GAD65 peptide [11]: X (X = positive for immunoreactivity as defined by 00/background^3.0); immunoreactivity of serum with GAD65 peptide [10]: b (b = borderline response (00/background ?2.5-2.9).)
LEAKQKGFVPFLVSATAGTT [Peptide 22] | – | – | X (X = positive for immunoreactivity as defined by 00/background^3.0) | X (X = positive for immunoreactivity as defined by 00/background^3.0) | 2 | b (b = borderline response (00/background ?2.5-2.9).) | b (b = borderline response (00/background ?2.5-2.9).) | –
LLYGDAEKPAESGGSQPPRA [Peptide 4] | – | – | X (X = positive for immunoreactivity as defined by 00/background^3.0) | – | – | b (b = borderline response (00/background ?2.5-2.9).) | b (b = borderline response (00/background ?2.5-2.9).) | –
QKFTGGIGIGNKLCALLYGD [Peptide 3] | – | X (X = positive for immunoreactivity as defined by 00/background^3.0) | b (b = borderline response (00/background ?2.5-2.9).) | – | – | – | – | immunoreactivity of serum with GAD65 peptide [5]: X (X = positive for immunoreactivity as defined by 00/background^3.0); immunoreactivity of serum with GAD65 peptide [11]: b (b = borderline response (00/background ?2.5-2.9).); immunoreactivity of serum with GAD65 peptide [6]: X (X = positive for immunoreactivity as defined by 00/background^3.0)
QNCNQMHASYLFQQDKHYDL [Peptide 28] | b (b = borderline response (00/background ?2.5-2.9).) | – | – | – | – | – | – | –
